# Test results: US11241453B2, “Arsenic compositions” (Eupharma Pty Ltd, priority 2016, dated 2022)
# Several values for one entry are separate records, joined by “and”; a condition that tells them apart may be missing. Identical values can stand only once. Like-named read-outs stand apart in the source and are kept apart here.
# Tests used:
# [1] = cited from earlier work
# [2] = cited from earlier work; remark: listed apart in the source
# [3] = assay type: physicochemical
# [4] = Dissolution in near neutral solution at pH 6.5; assay type: physicochemical; settings: for Time until capsule opens: pH 6.5, 150 mls, 37° C., stirred
# Method: Dissolution experiments were carried out on NaHAs2O4 at 2 different pH levels. Firstly, simulated gastric fluid (pH 1.24) was used, then a near neutral solution at pH 6.5. Prior to addition of the capsules, 150 mls of the dissolution solution was heated to 37° C. and the solution contained a spin bar at a speed of 2. The appropriate capsule was then added.
# [5] = gelatin capsule in 150 mL simulated gastric solution, approx. pH 1.2, 37° C.
Substance,Time required for complete dissolution ([1]; 0.1 M NaOH),"Dissolution (in words) ([1]; in vitro, strong stirring, low pH)",Solubility (in words) ([2]; neutral pH),Solubility in water (in words) ([2]; physiological or acidic pH),"Time until capsule opens ([3]; 10 mg capsule, pH 1.24, 150 mls, 37° C., stirred)",Time to complete dissolution in gastric juices [3],Time to complete dissolution in gastric juices ([3]; 'even less than'),"Time until capsule shell had dissolved [3, 5]","Time until contents had completely dissolved [3, 5]",Time to dissolve ([3]; pH about 1),"Time until powder was completely dissolved ([3]; simulated gastric fluid pH 1.24, 37° C.)",Dissolution in stomach acid (in words) ([3]; stomach acid),Time until capsule opens ([4]; 1 mg capsule),Time until capsule opens ([4]; 10 mg capsule),"Time until powder was completely dissolved ([4]; near neutral solution pH 6.5, 37° C.)",Time to dissolve ([4]; pH 7)
arsenic trioxide,15 to 20 min,very slow process,only slightly soluble,only sparingly soluble,–,–,–,–,–,–,–,–,–,–,–,–
sodium diarsenic tetraoxide [NaHAs2O4],–,–,–,–,35 s and 40 s,less than 1 min,less than 30 seconds,less than or about one minute,≤ 2 min,less than 10 seconds,less than two minutes,very rapidly dissolved in stomach acid without any precipitation,50 s and 45 s,55 s and 50 s,less than two minutes,well under a minute
